{"source": "paper PMC5770468", "about": "“Cardiac glycoside/aglycones inhibit HIV-1 gene expression by a mechanism requiring MEK1/2-ERK1/2 signaling” (Scientific Reports, 2018)", "tested_on": "HeLa rtTA-HIV-ΔMls cells", "assay": "In vitro therapeutic index (CC20/IC50) in HeLa rtTA-HIV-ΔMls cells", "assay_type": "cell-based, human", "excerpt": "Without median toxic dose (TD50) and half-maximal effective concentration (EC50) data available to calculate TIs (in vivo) from HIV patients treated with CSs, we determined the following TIs for each cell type treated with a CS (summarized in Supplementary Table S1): in vitro TIs from HeLa rtTA-HIV-ΔMls cells using CC20/IC50 (instead of CC50/IC50), in vitro TIs from 24ST1NLESG cells using CC50/IC50, and ex vivo TIs from HIV-infected PBMCs using CC50/IC50 (at day 14 of culture approximated from available cell viability trends for CC50s of Supplementary Fig. S13 and inferred near maximal IC50s).\nSupplementary Table S1. Comparison of the in vitro (IVTI) and ex vivo therapeutic indices (EVTIs) of CSs and their impact on the expression of essential HIV-1 proteins.\nNotes: data for CC20, CC50, and IC50s for each drug/compound were estimated from dose response curves in Figures 1-2, Supplementary Table S1, Supplementary Figures S2, S5, and S13, and Wong et al.\n\">\" means the estimate has not been accurately determined but is greater than the highest concentration […]\n\"( )\" indicates preliminary data that was not shown. aCC20 instead of CC50 was estimated from dose response curves and used for calculation of IVTIs. bCells were treated at ~IC90of a CS.\n(1 picture or pasted object on this page, not shown here)"}
{"smiles": "C[C@@H]1O[C@@H](O[C@H]2C[C@@H](O)[C@]3(CO)[C@H]4[C@H](O)C[C@]5(C)[C@@H](C6=CC(=O)OC6)CC[C@]5(O)[C@@H]4CC[C@]3(O)C2)[C@H](O)[C@H](O)[C@H]1O", "note": "[Ouabain]", "values": [{"measurement": "better in vitro TI than digoxin", "value": 1.2, "unit": "fold"}]}
